Assay results from paper PMC7031696 (Cell chemical biology, 2019).

Tested on: 3D7-MR4 trophozoite parasite-infected RBCs
Assay: Metabolomic profiling (hydrophilic metabolite changes, UHPLC-MS)
Assay type: cell-based, Plasmodium falciparum

CN(C)Cc1ccc(-c2cc3c(-c4ccc(CN(C)C)cc4)ccnc3[nH]2)cc1.O=C(O)C(F)(F)F [MMV022224] was tested. Which “peptide levels (hemoglobin catabolism signature)” value (10 × IC50^72h, 2.5 hr, trophozoites) did it give?
The value was “increased levels of peptides”.

What about the “Log2(fold changes) 1_3-Bisphosphoglyceric acid” value (metabolite 1_3-Bisphosphoglyceric acid, log2 fold change) of the same compound?
The value was 0.0000.

And the “Log2(fold changes) 2-Hydroxy-2-methylbutanedioic acid” value (metabolite 2-Hydroxy-2-methylbutanedioic acid, log2 fold change)?
The value was 0.1756.

And the “Log2(fold changes) 2-Isopropylmalic acid” value (metabolite 2-Isopropylmalic acid, log2 fold change)?
Its value is 0.0000.

And the “Log2(fold changes) 2-dehydro-D-gluconate” value (metabolite 2-dehydro-D-gluconate, log2 fold change)?
Its value is 0.3564.

What about the “Log2(fold changes) 2-oxo-4-methylthiobutanoate” value (metabolite 2-oxo-4-methylthiobutanoate, log2 fold change) of the same compound?
The value was 0.0000.

And the “Log2(fold changes) 2_3-Diphosphoglyceric acid” value (metabolite 2_3-Diphosphoglyceric acid, log2 fold change)?
The value was -0.1549.

What about the “Log2(fold changes) 3-phosphoglycerate” value (metabolite 3-phosphoglycerate, log2 fold change) of the same compound?
Its value is -0.0795.

What about the “Log2(fold changes) 3-phosphoserine” value (metabolite 3-phosphoserine, log2 fold change) of the same compound?
The value was -0.1712.

And the “Log2(fold changes) 4-Pyridoxic acid” value (metabolite 4-Pyridoxic acid, log2 fold change)?
Its value is 0.0566.

What about the “Log2(fold changes) 4-aminobutyrate” value (metabolite 4-aminobutyrate, log2 fold change) of the same compound?
The value was -0.2938.

What about the “Log2(fold changes) 4-phosphopantetheine” value (metabolite 4-phosphopantetheine, log2 fold change) of the same compound?
Its value is -0.5209.

And the “Log2(fold changes) 4-phosphopantothenate” value (metabolite 4-phosphopantothenate, log2 fold change)?
Its value is 0.0735.

What about the “Log2(fold changes) 5-aminopentanoic acid” value (metabolite 5-aminopentanoic acid, log2 fold change) of the same compound?
The value was 0.0000.

What about the “Log2(fold changes) 5-methyl-THF” value (metabolite 5-methyl-THF, log2 fold change) of the same compound?
Its value is 0.0000.

And the “Log2(fold changes) 5-phosphoribosyl-1-pyrophosphate” value (metabolite 5-phosphoribosyl-1-pyrophosphate, log2 fold change)?
The value was -0.7551.

And the “Log2(fold changes) 6-phospho-D-gluconate” value (metabolite 6-phospho-D-gluconate, log2 fold change)?
The value was -0.0328.

And the “Log2(fold changes) ADP-D-glucose” value (metabolite ADP-D-glucose, log2 fold change)?
Its value is 0.0037.

What about the “Log2(fold changes) Acetyl-glycine” value (metabolite Acetyl-glycine, log2 fold change) of the same compound?
Its value is 0.0000.

And the “Log2(fold changes) Acetyllysine” value (metabolite Acetyllysine, log2 fold change)?
The value was 0.0000.

And the “Log2(fold changes) Aminoadipic acid” value (metabolite Aminoadipic acid, log2 fold change)?
The value was 0.0000.

What about the “Log2(fold changes) CDP” value (metabolite CDP, log2 fold change) of the same compound?
Its value is -0.4119.

And the “Log2(fold changes) CDP-choline” value (metabolite CDP-choline, log2 fold change)?
The value was 0.2972.

What about the “Log2(fold changes) CDP-ethanolamine” value (metabolite CDP-ethanolamine, log2 fold change) of the same compound?
The value was 0.0000.

What about the “Log2(fold change) of CMP” value (metabolite CMP) of the same compound?
Its value is 0.3976.

What about the “Log2(fold change) of CTP” value (metabolite CTP) of the same compound?
Its value is -0.2057.

And the “Log2(fold changes) Citraconic acid” value (metabolite Citraconic acid, log2 fold change)?
The value was 0.0000.

And the “Log2(fold change) of D-glucarate” value (metabolite D-glucarate)?
The value was 0.0159.

And the “Log2(fold change) of D-gluconate” value (metabolite D-gluconate)?
Its value is -0.4042.

What about the “Log2(fold change) of D-glucosamine-1/6-phosphate” value (metabolite D-glucosamine-1/6-phosphate) of the same compound?
The value was 0.0000.

What about the “Log2(fold change) of D-sedoheptulose-1/7-phosphate” value (metabolite D-sedoheptulose-1/7-phosphate) of the same compound?
Its value is 0.3067.

And the “Log2(fold change) of DL-Pipecolic Acid” value (metabolite DL-Pipecolic Acid)?
The value was 0.0000.

And the “Log2(fold change) of DLH” value (metabolite DLH)?
Its value is 0.8439.

What about the “Log2(fold change) of DLS” value (metabolite DLS) of the same compound?
The value was 0.5887.

And the “Log2(fold change) of Decanoyl-CoA” value (metabolite Decanoyl-CoA)?
The value was 0.0000.

What about the “Log2(fold change) of EV” value (metabolite EV) of the same compound?
The value was 0.0000.

What about the “Log2(fold change) of FAD” value (metabolite FAD) of the same compound?
Its value is 0.8383.

What about the “Log2(fold change) of FMN” value (metabolite FMN) of the same compound?
Its value is 0.1361.

What about the “Log2(fold change) of G3P/DHAP” value (metabolite G3P/DHAP) of the same compound?
The value was 0.0585.

What about the “Log2(fold change) of GDP” value (metabolite GDP) of the same compound?
The value was -0.5545.

What about the “Log2(fold change) GMP” value (metabolite GMP) of the same compound?
The value was -0.0052.

What about the “Log2(fold change) GTP” value (metabolite GTP) of the same compound?
The value was -0.2843.

What about the “Log2(fold change) HVDD” value (metabolite HVDD) of the same compound?
Its value is 0.7226.

What about the “Log2(fold change) Hexose” value (metabolite Hexose) of the same compound?
The value was 0.3496.

And the “Log2(fold change) Hydroxyisocaproic acid” value (metabolite Hydroxyisocaproic acid)?
Its value is 0.0000.

What about the “Log2(fold change) IDP” value (metabolite IDP) of the same compound?
Its value is 0.0000.

What about the “Log2(fold change) IMP” value (metabolite IMP) of the same compound?
Its value is 0.0372.

What about the “Log2(fold change) Inositol” value (metabolite Inositol) of the same compound?
Its value is 0.0000.

And the “Log2(fold change) Isopentyl-PP” value (metabolite Isopentyl-PP)?
The value was 0.0000.

What about the “Log2(fold change) L-arginino-succinate” value (metabolite L-arginino-succinate) of the same compound?
The value was -0.1932.

And the “Log2(fold change) LD” value (metabolite LD)?
The value was 0.8668.

And the “Log2(fold change) Myristoyl/tetradecanoyl-CoA” value (metabolite Myristoyl/tetradecanoyl-CoA)?
The value was 0.0000.

And the “Log2(fold change) N-Acetyl-L-alanine” value (metabolite N-Acetyl-L-alanine)?
Its value is -0.6716.

What about the “Log2(fold change) N-acetyl-L-ornithine” value (metabolite N-acetyl-L-ornithine) of the same compound?
The value was 0.0000.

What about the “Log2(fold change) N-acetyl-glucosamine-1/6-phosphate” value (metabolite N-acetyl-glucosamine-1/6-phosphate) of the same compound?
The value was -0.1039.

And the “Log2(fold change) N-acetyl-glutamate” value (metabolite N-acetyl-glutamate)?
Its value is -0.3449.

And the “Log2(fold change) N-acetyl-glutamine” value (metabolite N-acetyl-glutamine)?
The value was -1.3853.

And the “Log2(fold change) N-carbamoyl-L-aspartate” value (metabolite N-carbamoyl-L-aspartate)?
The value was -0.1955.

What about the “Log2(fold change) NAD+” value (metabolite NAD+) of the same compound?
Its value is -0.0358.

And the “Log2(fold change) NADH” value (metabolite NADH)?
Its value is 1.5825.

What about the “Log2(fold change) NADP+” value (metabolite NADP+) of the same compound?
The value was 0.0717.

What about the “Log2(fold change) NADPH” value (metabolite NADPH) of the same compound?
Its value is 1.3580.

And the “Log2(fold change) O-acetyl-L-serine” value (metabolite O-acetyl-L-serine)?
Its value is 0.0000.

And the “Log2(fold change) Octoluse 8/1P” value (metabolite Octoluse 8/1P)?
Its value is 0.5111.

And the “Log2(fold change) Octoluse Bisphosphate” value (metabolite Octoluse Bisphosphate)?
The value was -0.3203.

What about the “Log2(fold change) PD” value (metabolite PD) of the same compound?
The value was -0.9637.

What about the “Log2(fold change) PE” value (metabolite PE) of the same compound?
Its value is 0.0520.

And the “Log2(fold change) PEE” value (metabolite PEE)?
Its value is 0.3860.

And the “Log2(fold change) PEEK” value (metabolite PEEK)?
Its value is 1.9585.

What about the “Log2(fold change) PVNF” value (metabolite PVNF) of the same compound?
Its value is 0.5887.

What about the “Log2(fold change) Pyroglutamic acid” value (metabolite Pyroglutamic acid) of the same compound?
Its value is -0.2368.

What about the “Log2(fold change) Pyrophosphate” value (metabolite Pyrophosphate) of the same compound?
The value was 0.0000.

What about the “Log2(fold change) Ribose-5-phosphate” value (metabolite Ribose-5-phosphate) of the same compound?
The value was -0.2008.

And the “Log2(fold change) S-adenosyl-L-homocysteine” value (metabolite S-adenosyl-L-homocysteine)?
Its value is 0.3352.

And the “Log2(fold change) S-adenosyl-L-methioninamine” value (metabolite S-adenosyl-L-methioninamine)?
Its value is 0.0000.

And the “Log2(fold change) S-adenosyl-L-methionine” value (metabolite S-adenosyl-L-methionine)?
Its value is 0.0000.

And the “Log2(fold change) S-methyl-5'-thioadenosine” value (metabolite S-methyl-5'-thioadenosine)?
Its value is 0.2721.

And the “Log2(fold change) SD” value (metabolite SD)?
Its value is -0.1612.

What about the “Log2(fold change) SDL” value (metabolite SDL) of the same compound?
Its value is 0.5371.

And the “Log2(fold change) SID” value (metabolite SID)?
The value was 0.0000.

And the “Log2(fold change) Sedoheptulose bisphosphate” value (metabolite Sedoheptulose bisphosphate)?
The value was 0.0035.

And the “Log2(fold change) Thiamine pyrophosphate” value (metabolite Thiamine pyrophosphate)?
Its value is -0.0731.

What about the “Log2(fold changes) UDP-D-glucose” value (metabolite UDP-D-glucose, log2 fold change) of the same compound?
The value was 0.0091.

And the “Log2(fold changes) UDP-D-glucuronate” value (metabolite UDP-D-glucuronate, log2 fold change)?
Its value is -0.1151.

And the “Log2(fold changes) UDP-N-acetyl-glucosamine” value (metabolite UDP-N-acetyl-glucosamine, log2 fold change)?
Its value is -0.0367.

What about the “Log2(fold changes) UDP” value (metabolite UDP, log2 fold change) of the same compound?
The value was -0.5308.

And the “Log2(fold changes) UMP” value (metabolite UMP, log2 fold change)?
The value was 0.0364.

What about the “Log2(fold changes) UTP” value (metabolite UTP, log2 fold change) of the same compound?
The value was -0.1207.

What about the “Log2(fold changes) VD” value (metabolite VD, log2 fold change) of the same compound?
Its value is 0.0000.

And the “Log2(fold changes) Xanthurenic acid” value (metabolite Xanthurenic acid, log2 fold change)?
Its value is 0.0000.

And the “Log2(fold changes) a-ketoglutarate” value (metabolite a-ketoglutarate, log2 fold change)?
The value was -0.4532.

And the “Log2(fold changes) acetyl-CoA” value (metabolite acetyl-CoA, log2 fold change)?
Its value is -0.3299.

What about the “Log2(fold changes) acetyl-aspartate” value (metabolite acetyl-aspartate, log2 fold change) of the same compound?
Its value is -0.2105.

What about the “Log2(fold changes) acetylphosphate” value (metabolite acetylphosphate, log2 fold change) of the same compound?
Its value is 0.0000.

What about the “Log2(fold changes) aconitate” value (metabolite aconitate, log2 fold change) of the same compound?
Its value is -0.2855.

What about the “Log2(fold changes) adenine” value (metabolite adenine, log2 fold change) of the same compound?
Its value is 0.0812.

What about the “Log2(fold changes) adenosine 5'-phosphosulfate” value (metabolite adenosine 5'-phosphosulfate, log2 fold change) of the same compound?
The value was 0.0000.
